Experimental data reported in patent US12643910B2, “Substituted pyrazolo[3,4-b]pyridines as ectonucleotide pyrophosphatase/phosphodiesterase 1 (ENPP1) modulators” (SANFORD BURNHAM PREBYS MEDICAL DISCOVERY INSTITUTE, priority 2019, dated 2026).

Key:
human ENPP1 = molecular target: T1, human ENPP1 (Homo sapiens, UniProt P22413); experiment: ENPP1 assay with ATP substrate (Transcreener AMP2/GMP2 TR-FRET); assay type: biochemical; details: 1 hour at room temperature
T1 construct: made in house
T1 sequence (P22413 1-925): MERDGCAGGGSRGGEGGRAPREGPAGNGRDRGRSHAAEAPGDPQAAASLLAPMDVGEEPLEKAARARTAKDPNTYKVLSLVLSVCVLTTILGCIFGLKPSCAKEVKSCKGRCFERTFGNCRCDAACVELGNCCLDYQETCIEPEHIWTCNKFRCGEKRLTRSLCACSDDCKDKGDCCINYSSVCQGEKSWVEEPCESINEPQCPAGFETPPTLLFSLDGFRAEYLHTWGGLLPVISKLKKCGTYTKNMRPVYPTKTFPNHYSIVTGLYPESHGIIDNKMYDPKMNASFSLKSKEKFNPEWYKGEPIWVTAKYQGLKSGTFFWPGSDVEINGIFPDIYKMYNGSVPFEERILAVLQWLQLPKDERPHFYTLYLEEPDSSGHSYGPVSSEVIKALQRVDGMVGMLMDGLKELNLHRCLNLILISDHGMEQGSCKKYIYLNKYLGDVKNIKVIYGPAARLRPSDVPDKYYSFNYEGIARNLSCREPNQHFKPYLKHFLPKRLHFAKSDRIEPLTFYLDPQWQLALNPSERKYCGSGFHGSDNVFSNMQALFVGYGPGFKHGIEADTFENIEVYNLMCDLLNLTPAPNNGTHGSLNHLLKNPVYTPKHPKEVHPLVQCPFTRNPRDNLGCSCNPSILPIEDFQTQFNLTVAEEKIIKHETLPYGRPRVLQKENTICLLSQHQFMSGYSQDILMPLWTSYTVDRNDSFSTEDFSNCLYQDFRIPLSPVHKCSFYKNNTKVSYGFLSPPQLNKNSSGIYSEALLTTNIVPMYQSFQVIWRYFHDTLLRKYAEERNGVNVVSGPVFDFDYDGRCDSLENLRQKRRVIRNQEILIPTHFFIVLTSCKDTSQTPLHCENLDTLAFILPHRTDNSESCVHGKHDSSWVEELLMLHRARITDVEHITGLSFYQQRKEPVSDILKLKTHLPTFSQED
Outline: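 5′-AMP from ATP hydrolysis (300 nM ATP stock added; enzyme added as 8.5 μM stock) detected by competitive TR-FRET. Buffer: 50 mM Tris pH 7.5, 1 mM TCEP, 2 mM MgCl2, 0.005% Tween 20, 1% DMSO. Reaction 1 h at room temperature, EDTA stop. IC50 from 2-parameter variable-slope fit.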

ENPP3 = molecular target: T2, ENPP3 (Homo sapiens, UniProt O14638); experiment: ENPP3 Km ATP assay; assay type: biochemical; details: ATP at Km
T2 sequence (O14638 1-875): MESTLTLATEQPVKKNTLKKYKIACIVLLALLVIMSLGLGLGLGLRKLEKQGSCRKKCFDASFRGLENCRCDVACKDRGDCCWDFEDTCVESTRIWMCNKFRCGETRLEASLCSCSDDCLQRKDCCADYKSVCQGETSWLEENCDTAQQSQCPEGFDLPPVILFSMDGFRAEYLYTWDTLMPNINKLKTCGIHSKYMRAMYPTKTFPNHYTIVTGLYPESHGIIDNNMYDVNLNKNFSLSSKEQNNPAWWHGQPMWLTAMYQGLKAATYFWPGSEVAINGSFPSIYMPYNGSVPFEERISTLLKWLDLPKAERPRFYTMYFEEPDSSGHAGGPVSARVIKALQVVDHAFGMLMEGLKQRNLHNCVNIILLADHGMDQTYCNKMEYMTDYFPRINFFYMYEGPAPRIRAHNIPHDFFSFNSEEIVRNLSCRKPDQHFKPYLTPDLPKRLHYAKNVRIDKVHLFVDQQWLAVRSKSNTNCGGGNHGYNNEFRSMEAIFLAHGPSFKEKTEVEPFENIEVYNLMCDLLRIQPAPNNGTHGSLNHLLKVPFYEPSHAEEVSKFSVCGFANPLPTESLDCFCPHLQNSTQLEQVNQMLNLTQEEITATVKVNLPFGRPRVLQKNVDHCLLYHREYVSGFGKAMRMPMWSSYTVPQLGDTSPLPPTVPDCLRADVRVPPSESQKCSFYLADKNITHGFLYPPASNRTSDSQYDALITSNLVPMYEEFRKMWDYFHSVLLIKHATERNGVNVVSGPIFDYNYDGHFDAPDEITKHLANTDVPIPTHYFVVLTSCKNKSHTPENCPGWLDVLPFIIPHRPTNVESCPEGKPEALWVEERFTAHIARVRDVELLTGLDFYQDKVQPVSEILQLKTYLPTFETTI

SMILES	IC50 (human ENPP1) [µM]	IC50 (ENPP3) [µM]
Cn1nc(Br)c2c(NCc3ccc(S(N)(=O)=O)cc3)nc(N3CCCCC3)nc21 [Example 2.131, 4-((3-Bromo-1-methyl-6-piperidino-1H-pyrazolo[3,4-d]pyrimidin-4-yl)aminomethyl)benzenesulfonamide]	1 to 20	< 0.1
Cn1nc(-c2ccccc2)c2c(NCc3ccc(S(N)(=O)=O)cc3)nc(N3CCCCC3)nc21 [Example 2.132, 4-((1-Methyl-3-phenyl-6-piperidino-1H-pyrazolo[3,4-d]pyrimidin-4-yl)aminomethyl)benzenesulfonamide]	< 0.1	0.1 to 1
Cn1ncc2c(NCc3ccc(S(N)(=O)=O)cc3)nc(C(F)(F)F)nc21 [Example 2.133, 4-((1-Methyl-6-trifluoromethyl-1H-pyrazolo[3,4-d]pyrimidin-4-yl)aminomethyl)-benzenesulfonamide]	1 to 20	1 to 20
Cn1ncc2c(NCc3ccc(S(N)(=O)=O)cc3)cc(C3CC3)nc21 [Example 2.134, 4-((6-Cyclopropyl-1-methyl-1H-pyrazolo[3,4-b]pyridin-4-yl)aminomethyl)-benzenesulfonamide]	1 to 20	1 to 20
Cc1nc(NCc2ccc(S(N)(=O)=O)cc2)c2c(C3CCCC3)nn(C)c2n1 [Example 2.135, 4-((3-Cyclopentyl-1,6-dimethyl-1H-pyrazolo[3,4-d]pyrimidin-4-yl)aminomethyl)benzenesulfonamide]	1 to 20	1 to 20
CN(Cc1ccc(S(N)(=O)=O)cc1)c1ncnc2c1cnn2C [Example 2.136, 4-(N-methyl-N-(1-methyl-1H-pyrazolo[3,4-d]pyrimidin-4-yl)aminomethyl)-benzenesulfonamide]	1 to 20	0.1 to 1
Cn1ncc2c(OCc3ccc(S(N)(=O)=O)cc3)ncnc21 [Example 2.137, 4-((1-Methyl-1H-pyrazolo[3,4-d]pyrimidin-4-yl)oxymethyl)benzenesulfonamide]	1 to 20	1 to 20
CCNc1nc(NCc2ccc(S(N)(=O)=O)cn2)c2cnn(C)c2n1 [Example 2.139, 6-(((6-(Ethylamino)-1-methyl-1H-pyrazolo[3,4-d]pyrimidin-4-yl)amino)methyl)pyridine-3-sulfonamide]	1 to 20	1 to 20
Cn1ncc2c(NCc3ccc(S(N)(=O)=O)cc3F)nc(Cl)nc21 [Example 2.140, 4-(((6-Chloro-1-methyl-1H-pyrazolo[3,4-d]pyrimidin-4-yl)amino)methyl)-3-fluorobenzenesulfonamide]	0.1 to 1	0.1 to 1
CCNc1nc(NCc2ccc(S(N)(=O)=O)cc2F)c2cnn(C)c2n1 [Example 2.141, 4-(((6-(Ethylamino)-1-methyl-1H-pyrazolo[3,4-d]pyrimidin-4-yl)amino)methyl)-3-fluorobenzenesulfonamide]	0.1 to 1	0.1 to 1
Cn1ncc2c(NCc3ccc(S(N)(=O)=O)cn3)cc(Cl)nc21 [Example 2.142, 6-(((6-Chloro-1-methyl-1H-pyrazolo[3,4-b]pyridin-4-yl)amino)methyl)pyridine-3-sulfonamide]	< 0.1	0.1 to 1
Cn1ncc2c(NCc3ccc(S(N)(=O)=O)cc3F)cc(Cl)nc21 [Example 2.143, 4-(((6-Chloro-1-methyl-1H-pyrazolo[3,4-b]pyridin-4-yl)amino)methyl)-3-fluorobenzenesulfonamide]	< 0.1	< 0.1
CCNc1cc(NCc2ccc(S(N)(=O)=O)cc2F)c2cnn(C)c2n1 [Example 2.144, 4-(((6-(Ethylamino)-1-methyl-1H-pyrazolo[3,4-b]pyridin-4-yl)amino)methyl)-3-fluorobenzenesulfonamide]	0.1 to 1	0.1 to 1
Cc1csc2c(N3CCC(NCc4ccccc4)CC3)ncnc12 [Example 3.0, N-Benzyl-1-(7-methylthieno[3,2-d]pyrimidin-4-yl)piperidin-4-amine]	0.1 to 1	> 20
Cc1csc2c(N3CCC(NCCCc4ccncc4)CC3)ncnc12 [Example 3.1, 1-(7-Methylthieno[3,2-d]pyrimidin-4-yl)-N-(3-(pyridin-4-yl)propyl)piperidin-4-amine]	0.1 to 1	> 20
Cc1csc2c(N3CCC(NCc4ccncc4)CC3)ncnc12 [Example 3.2, 1-(7-Methylthieno[3,2-d]pyrimidin-4-yl)-N-(pyridin-4-ylmethyl)piperidin-4-amine]	1 to 20	> 20
Cc1csc2c(N3CCC(NCCCc4ccccn4)CC3)ncnc12 [Example 3.3, 1-(7-Methylthieno[3,2-d]pyrimidin-4-yl)-N-(3-(pyridin-2-yl)propyl)piperidin-4-amine]	0.1 to 1	> 20
Cc1ccc(CCCNC2CCN(c3ncnc4c(C)csc34)CC2)cc1 [Example 3.4, 1-(7-Methylthieno[3,2-d]pyrimidin-4-yl)-N-(3-(p-tolyl)propyl)piperidin-4-amine]	0.1 to 1	> 20
Cc1csc2c(N3CCC(NCCCc4ccc(F)cc4)CC3)ncnc12 [Example 3.5, N-(3-(4-Fluorophenyl)propyl)-1-(7-methylthieno[3,2-d]pyrimidin-4-yl)piperidin-4-amine]	0.1 to 1	> 20
Cc1csc2c(N3CCC(NCCCc4ccc(C#N)cc4)CC3)ncnc12 [Example 3.6, 4-(3-((1-(7-Methylthieno[3,2-d]pyrimidin-4-yl)piperidin-4-yl)amino)propyl)benzonitrile]	0.1 to 1	> 20
Cc1csc2c(N3CCN(CCCCc4ccncc4)CC3)ncnc12 [Example 3.7, 7-Methyl-4-(4-(4-(pyridin-4-yl)butyl)piperazin-1-yl)thieno[3,2-d]pyrimidine]	1 to 20	> 20
COc1cc(CCC(=O)NC2CCN(c3ncnc4c(C)csc34)CC2)ccn1 [Example 3.8]	1 to 20	> 20
Cc1csc2c(N3CCC(NC(=O)CCc4ccnc(Br)c4)CC3)ncnc12 [Example 3.9]	1 to 20	> 20
Cc1csc2c(N3CCC(NC(=O)/C=C/c4ccncc4Cl)CC3)ncnc12 [Example 3.11, (E)-3-(3-Chloropyridin-4-yl)-N-(1-(7-methylthieno[3,2-d]pyrimidin-4-yl)piperidin-4-yl)acrylamide]	1 to 20	> 20
Cc1csc2c(N3CCC(NCCCc4cccc(C(F)(F)F)c4)CC3)ncnc12 [Example 3.12, 1-(7-Methylthieno[3,2-d]pyrimidin-4-yl)-N-(3-(3-(trifluoromethyl)phenyl)propyl)piperidin-4-amine]	0.1 to 1	> 20
Cc1csc2c(N3CCC(NCCCc4ccncc4Cl)CC3)ncnc12 [Example 3.13, N-(3-(3-Chloropyridin-4-yl)propyl)-1-(7-methylthieno[3,2-d]pyrimidin-4-yl)piperidin-4-amine]	0.1 to 1	> 20
Cc1ccccc1CCC(=O)NC1CCN(c2ncnc3c(C)csc23)CC1 [Example 3.14, N-(1-(7-Methylthieno[3,2-d]pyrimidin-4-yl)piperidin-4-yl)-3-(o-tolyl)propanamide]	> 20	> 20
